# From patent US20100143992A1, “Process for Fermentive Preparation of Alcohols and Recovery of Product” (E. I du Pont de Nemours and Company, priority 2008, published 2010)
# Legend:
# [1] = system: Lactobacillus fermentum (ATCC 14931); test: Glucose Uptake Index (GUI) of culture grown with ionic liquid; assay type: cell-based; settings: 5% (v/v) ionic liquid, 16 hours at 30° C., GUI of control without ionic liquid 55.9
# Protocol: (§1) After 24 hours the test tube was removed and used immediately.
# [2] = system: Lactobacillus zeae (ATCC 15820); test: as above; assay type: cell-based; settings: 5% (v/v) ionic liquid, 16 hours at 30° C., GUI of control without ionic liquid 61.9
# Protocol: as §1
# [3] = Extraction of ethanol from an aqueous solution by ionic liquid; assay type: physicochemical; settings: 5 vol % ionic liquid; for g/L ethanol left in solution / mM Ethanol (in solution after extraction): 3 mL aqueous solution, about 31 g/L ethanol, overnight equilibration; for g/L ethanol left in solution: control 30.2; for mM Ethanol (in solution after extraction): control 655; for % EthOH Extracted: percentage of alcohol remaining in control
# Protocol: (§2) The extraction of ethanol and isobutanol from an aqueous solution by selected ionic liquids was evaluated. […] Ethanol and isobutanol concentration in the solution was measured using HPLC as described above following thorough mixing and overnight equilibration of the contents of the vial.
# [4] = Extraction of isobutanol from an aqueous solution by ionic liquid; assay type: physicochemical; settings: 5 vol % ionic liquid; for g/L isobutanol left in solution / mM isobutanol (in solution after extraction): 3 mL aqueous solution, about 31 g/L isobutanol, overnight equilibration; for g/L isobutanol left in solution: control 32.3; for mM isobutanol (in solution after extraction): control 436; for % isobutanol Extracted: percentage of alcohol remaining in control
# Protocol: as §2
molecule,measurement,setting,value
1-Ethyl-3-methylimidazolium levulinate [[EMIM] [Lev]],GUI of Sample (Glucose Utilization Index in the presence of ionic liquid phase),[1],32.3
same,GUI of Sample (Glucose Utilization Index in the presence of ionic liquid phase),[2],41.4
"COCC[N+](C)(C)CCN1C(=O)CCC1C.O=S(=O)([N-]S(=O)(=O)C(F)(F)F)C(F)(F)F (centres unmarked) [[[MeDMMEAP] [Tf2N], 1-(N,N,N-dimethyl(methylethoxy)aminoethyl)-5-methylpyrrolidone-2-one bis(trifluoromethane)sulfonamide]",g/L ethanol left in solution,[3],29.6 g/L
same,mM Ethanol (in solution after extraction),[3],643 mM
same,% EthOH Extracted,[3],1.88%
same,g/L isobutanol left in solution,[4],28.8 g/L
same,mM isobutanol (in solution after extraction),[4],389 mM
same,% isobutanol Extracted,[4],12.1%
"CCC[N+](C)(C)CCN1C(=O)CCC1C.O=S(=O)([N-]S(=O)(=O)C(F)(F)F)C(F)(F)F (centres unmarked) [[MeDMPAP] [Tf2N], 1-(N,N,N-dimethylpropylaminoethyl)-5-methylpyrrolidone-2-one bis(trifluoromethane)sulfonamide]",g/L isobutanol left in solution,[4],28.7 g/L
same,mM isobutanol (in solution after extraction),[4],387 mM
same,% isobutanol Extracted,[4],12.7%
"COCC[N+](C)(C)CCN1C(=O)CCC1C (centres unmarked) [[MeDMMEAP] [HFPS], 1-(N,N,N-dimethyl(methylethoxy)aminoethyl)-5-methylpyrrolidin-2-one hexafluoropropanesulfonate]",GUI of Sample (Glucose Utilization Index in the presence of ionic liquid phase),[1],31.3
same,GUI of Sample (Glucose Utilization Index in the presence of ionic liquid phase),[2],45.1
same,g/L ethanol left in solution,[3],29.7 g/L
same,mM Ethanol (in solution after extraction),[3],645 mM
same,% EthOH Extracted,[3],1.48%
same,g/L isobutanol left in solution,[4],31.4 g/L
same,mM isobutanol (in solution after extraction),[4],423 mM
same,% isobutanol Extracted,[4],3.00%
"CC1CCC(=O)N1CC[N+](C)(C)CCO.O=S(=O)([N-]S(=O)(=O)C(F)(F)F)C(F)(F)F (centres unmarked) [[MeDHEAP] [Tf2N], 1-(N,N,N-dimethyl(hydroxyethyl)aminoethyl)-5-methylpyrrolidone-2-one bis(trifluoromethane)sulfonamide]",g/L isobutanol left in solution,[4],30.9 g/L
same,mM isobutanol (in solution after extraction),[4],417 mM
same,% isobutanol Extracted,[4],4.68%
"CCOCC[N+](C)(C)CCN1C(=O)CCC1C (centres unmarked) [[MeDMEEAP] [Tf2N]] [1-(N,N,N-dimethyl(ethylethoxy)aminoethyl)-5-methyl-pyrrolidine-2-one bis(trifluoromethane)-sulfonamide]",GUI of Sample (Glucose Utilization Index in the presence of ionic liquid phase),[1],37.6
same,GUI of Sample (Glucose Utilization Index in the presence of ionic liquid phase),[2],49.5
same,g/L ethanol left in solution,[3],29.4 g/L
same,mM Ethanol (in solution after extraction),[3],637 mM
same,% EthOH Extracted,[3],2.66%
same,g/L isobutanol left in solution,[4],29.5 g/L
same,mM isobutanol (in solution after extraction),[4],398 mM
same,% isobutanol Extracted,[4],9.48%
"CCOCC[N+](C)(C)CCN1C(=O)CCC1C (centres unmarked) [[MeDMEEAP] [HFPS]] [1-(N,N,N-dimethyl(ethylethoxy)aminoethyl)-5-methyl-pyrrolidine-2-one hexafluoropropanesulfonate]",GUI of Sample (Glucose Utilization Index in the presence of ionic liquid phase),[1],34.5
same,GUI of Sample (Glucose Utilization Index in the presence of ionic liquid phase),[2],46.9
same,g/L ethanol left in solution,[3],30.2 g/L
same,mM Ethanol (in solution after extraction),[3],656 mM
same,% EthOH Extracted,[3],0.00%
same,g/L isobutanol left in solution,[4],31.3 g/L
same,mM isobutanol (in solution after extraction),[4],422 mM
same,% isobutanol Extracted,[4],3.38%
1-Butyl-3-methylimidazolium levulinate [[BMIM] [Lev]],g/L ethanol left in solution,[3],27.5 g/L
same,mM Ethanol (in solution after extraction),[3],596 mM
same,% EthOH Extracted,[3],8.95%
